Reference: ChEMBL document CHEMBL4765379, “Synthesis and biological evaluation of diaryl urea derivatives designed as potential anticarcinoma agents using de novo structure-based lead optimization approach” (Eur J Med Chem, 2020)
pIC50: −log10 of the molar value.

How the values were obtained:
[1] = system: A549; test: Antiproliferative activity against human A549 cells assessed as reduction in cell growth incubated for 48 hrs by MTT assay; type: functional, cell-based; settings: A549, 48 h
[2] = system: HT-29; test: Antiproliferative activity against human HT-29 cells assessed as reduction in cell growth incubated for 48 hrs by MTT assay; type: functional, cell-based; settings: HT-29, 48 h

Work on COc1ccc(C(=O)Oc2ccc(NC(=O)Nc3ccc(Cl)c(C(F)(F)F)c3)cc2)cc1 yielded a pIC50 [1] of 4.79 and a pIC50 [2] of 4.47.
For O=C(Nc1ccc(F)cc1)Nc1ccc(OC(=O)c2ccccc2)cc1, the pIC50 [1] was 4.53 and the pIC50 [2] was 4.03.
O=C(Nc1ccccc1)Nc1ccc(OC(=O)c2ccc([N+](=O)[O-])cc2)cc1 gave a pIC50 [1] of 3.92 and a pIC50 [2] of 3.73.
In the case of O=C(Nc1ccc(OC(=O)c2ccccc2)cc1)Nc1ccc(Cl)c(C(F)(F)F)c1, the pIC50 [1] was 4.52 and the pIC50 [2] was 3.82.
With Cc1ccc(NC(=O)Nc2ccc(OC(=O)c3ccccc3)cc2)cc1 the pIC50 [1] was 4.32 and the pIC50 [2] was 3.98.
